Data reported in BindingDB's records for doi:10.1021/jm0490641 (Boehringer Ingelheim Pharma, 2005).

Target: Calcitonin gene-related peptide receptor (Callithrix jacchus)
Assay: Affinity against calcitonin gene related peptide receptor (1 uM) in marmoset tissue homogenates using [125I]CGRP as radioligand after 180 minutes of incubation at pH 7.40
Details: pH 7.4

IC50: 2.7 nM
SMILES: NCCCC[C@@H](NC(=O)[C@H](Cc1cc(Br)c(O)c(Br)c1)NC(=O)N1CCC(n2c(=O)[nH]c3ccccc32)CC1)C(=O)N1CCN(c2ccncc2)CC1 [4-(2-Oxo-2,3-dihydro-benzoimidazol-1-yl)-piperidine-1-carboxylic acid [(S)-1-[(R)-5-amino-1-(4-pyridin-4-yl-piperazine-1-carbonyl)-pentylcarbamoyl]-2-(3,5-dibromo-4-hydroxy-phenyl)-ethyl]-amide]
